Measurements from PubChem BioAssay AID328 (DTP/NCI, 2004).
“And” between values parts separate entries of the source, which are not always exact repeats. Equal entries are not always repeated. Inconclusive results and toxic doses are left out.

System: BDF1 mice, P388 leukemia ip, median survival T/C
Assay: NCI In Vivo Anticancer Drug Screen. Data for tumor model P388 Leukemia (intraperitoneal) in B6D2F1 (BDF1) mice
Conditions: endpoint: median survival time, higher = longer survival
Procedure, shortened: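 Transplantable tumour in mice; compound vs vehicle dosing; survival scored; ratio of treated to control reported.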

[1] = dose: 25.0 mg/kg/injection, schedule: Q01DX009 (ip), vehicle: saline with Tween-80
[2] = dose: 50.0 mg/kg/injection, schedule: Q01DX009 (ip), vehicle: saline with Tween-80
[3] = dose: 100.0 mg/kg/injection, schedule: Q01DX009 (ip), vehicle: saline with Tween-80
[4] = dose: 12.5 mg/kg/injection, schedule: Q01DX009 (ip), vehicle: saline with Tween-80
[5] = dose: 100.0 mg/kg/injection, schedule: Q04DX003 (ip), vehicle: Klucel (hydroxypropylcellulose) (HPC)
[6] = dose: 200.0 mg/kg/injection, schedule: Q04DX003 (ip), vehicle: Klucel (hydroxypropylcellulose) (HPC)
[7] = dose: 400.0 mg/kg/injection, schedule: Q04DX003 (ip), vehicle: Klucel (hydroxypropylcellulose) (HPC)
[8] = dose: 50.0 mg/kg/injection, schedule: Q01DX009 (ip), vehicle: water
[9] = dose: 100.0 mg/kg/injection, schedule: Q01DX009 (ip), vehicle: water
[10] = dose: 200.0 mg/kg/injection, schedule: Q01DX009 (ip), vehicle: water
[11] = dose: 25.0 mg/kg/injection, schedule: Q01DX009 (ip), vehicle: water
[12] = dose: 100.0 mg/kg/injection, schedule: Q01DX009 (ip), vehicle: Klucel (hydroxypropylcellulose) (HPC)

CC1C[N-]CC(C)C1.CC1C[N-]CC(C)C1.[Cl][Pt+2]([Cl])([Cl])[Cl] (stereo not drawn)
T/C (dose: 1.56 mg/kg/injection, schedule: Q01DX009 (ip), vehicle: saline): 95 % of control
T/C (dose: 3.12 mg/kg/injection, schedule: Q01DX009 (ip), vehicle: saline): 114 % of control
T/C (dose: 6.25 mg/kg/injection, schedule: Q01DX009 (ip), vehicle: saline): 93 % of control
T/C (dose: 12.5 mg/kg/injection, schedule: Q01DX009 (ip), vehicle: saline): 114 % of control
T/C (dose: 50.0 mg/kg/injection, schedule: Q01DX009 (ip), vehicle: saline): 107 % of control

CC1OC(O[C@H]2/C=C/C=C/C=C/C=C/C=C/C=C/C=C/[C@H](C)[C@@H](O)[C@@H](C)[C@H](C)OC(=O)C[C@H](O)C[C@H](O)CC[C@@H](O)[C@H](O)C[C@H](O)C[C@]3(O)C[C@H](O)[C@@H](C(=O)O)[C@H](C2)O3)C(O)C(N)C1O (stereo partly drawn)
T/C (dose: 20.0 mg/kg/injection, schedule: Q04DX003 (ip), vehicle: clinical formulation): 109 % of control
T/C (dose: 40.0 mg/kg/injection, schedule: Q04DX003 (ip), vehicle: clinical formulation): 97 % of control

CCC12C=CCN3CCC4(c5c(C(c6ccc(OC)cc6)c6c(CN(C)C)c7ccccc7n6C)cc(OC)cc5N(C)C4C(O)(C(=O)OC)C1OC(C)=O)C32 (stereo not drawn)
T/C (dose: 0.3 mg/kg/injection, schedule: Q01DX009 (ip), vehicle: saline): 93 % of control
T/C (dose: 0.6 mg/kg/injection, schedule: Q01DX009 (ip), vehicle: saline): 98 % of control
T/C (dose: 4.0 mg/kg/injection, schedule: Q01DX009 (ip), vehicle: saline): 97 % of control
T/C (dose: 8.0 mg/kg/injection, schedule: Q01DX009 (ip), vehicle: saline): 96 % of control
T/C (dose: 15.0 mg/kg/injection, schedule: Q01DX009 (ip), vehicle: saline): 107 % of control
T/C (dose: 16.0 mg/kg/injection, schedule: Q01DX009 (ip), vehicle: saline): 95 % of control
T/C (dose: 60.0 mg/kg/injection, schedule: Q01DX009 (ip), vehicle: saline): 123 % of control

N#Cc1cc([N+](=O)[O-])ccc1Cl
T/C [1]: 90 % of control
T/C [2]: 105 % of control
T/C [3]: 105 % of control

S=C1Cc2[nH]c(=S)sc(=S)c2C(=S)N1
T/C (dose: 6.25 mg/kg/injection, schedule: Q01DX009 (ip), vehicle: saline with Tween-80): 95 % of control
T/C [4]: 99 % of control
T/C [1]: 101 % of control

COc1ccc(NC(=O)Oc2cc(C)cc(C)c2)cc1
T/C [5]: 100 % of control
T/C [6]: 95 % of control
T/C [7]: 100 % of control

C/C=C(\C)C(=O)OCC1CC[N+](C)([O-])C1 (stereo not drawn)
T/C [8]: 103 % of control
T/C [9]: 100 % of control
T/C [10]: 103 % of control
T/C (dose: 400.0 mg/kg/injection, schedule: Q01DX009 (ip), vehicle: water): 119 % of control

O=C1/C(=C\c2ccccc2)C(Br)c2ccccc21 (stereo not drawn)
T/C (dose: 1.56 mg/kg/injection, schedule: Q01DX009 (ip), vehicle: water): 87 % of control
T/C (dose: 3.12 mg/kg/injection, schedule: Q01DX009 (ip), vehicle: water): 108 % of control
T/C (dose: 6.25 mg/kg/injection, schedule: Q01DX009 (ip), vehicle: water): 108 % of control
T/C (dose: 6.25 mg/kg/injection, schedule: Q04DX003 (ip), vehicle: water): 100 % of control
T/C (dose: 12.5 mg/kg/injection, schedule: Q01DX009 (ip), vehicle: water): 110 % of control
T/C (dose: 12.5 mg/kg/injection, schedule: Q04DX003 (ip), vehicle: water): 105 % of control
T/C [11]: 110 % of control
T/C (dose: 25.0 mg/kg/injection, schedule: Q04DX003 (ip), vehicle: water): 105 % of control
T/C (dose: 50.0 mg/kg/injection, schedule: Q04DX003 (ip), vehicle: water): 91 % of control

OCCN1CCN(CCCN2c3ccccc3Oc3ccc(C(F)(F)F)cc32)CC1
T/C (dose: 15.0 mg/kg/injection, schedule: Q04DX003 (ip), vehicle: saline): 105 % of control
T/C (dose: 25.0 mg/kg/injection, schedule: Q01DX009 (ip), vehicle: saline): 104 % of control
T/C (dose: 30.0 mg/kg/injection, schedule: Q04DX003 (ip), vehicle: saline): 115 % of control
T/C (dose: 50.0 mg/kg/injection, schedule: Q01DX009 (ip), vehicle: Klucel (hydroxypropylcellulose) (HPC)): 150 % of control
T/C (dose: 120.0 mg/kg/injection, schedule: Q04DX003 (ip), vehicle: saline): 105 % of control

O=C1OCCC1C(=O)C(O)(C(F)(F)F)C(F)(F)F (stereo not drawn)
T/C (dose: 100.0 mg/kg/injection, schedule: Q01DX001 (ip), vehicle: other): 90 % of control
T/C (dose: 200.0 mg/kg/injection, schedule: Q01DX001 (ip), vehicle: other): 90 % of control
T/C (dose: 400.0 mg/kg/injection, schedule: Q01DX001 (ip), vehicle: other): 100 % of control

CCC(=O)c1cc(O)ccc1O
T/C (dose: 50.0 mg/kg/injection, schedule: Q01DX009 (ip), vehicle: other): 106 % of control
T/C (dose: 100.0 mg/kg/injection, schedule: Q01DX009 (ip), vehicle: other): 97 % of control

CC(C)(C)NCCC(O)c1cc2c(Cl)cc(Cl)cc2c2cc(C(F)(F)F)ccc12 (stereo not drawn)
T/C [4]: 90 % of control
T/C [1]: 106 % of control
T/C [2]: 108 % of control and 114 % of control

CCCCCCC(=O)CC(SCC)c1ccc(Cl)cc1 (stereo not drawn)
T/C [2]: 98 % of control
T/C [3]: 102 % of control
T/C (dose: 200.0 mg/kg/injection, schedule: Q01DX009 (ip), vehicle: saline with Tween-80): 112 % of control

O=C(OC1COC(Br)C(OC(=O)c2ccccc2)C1OC(=O)c1ccccc1)c1ccccc1 (stereo not drawn)
T/C [5]: 100 % of control
T/C [6]: 95 % of control
T/C [7]: 100 % of control

CC1=CC(=C2C=CC(=[N+](C)C)C=C2)C=C(C)S1
T/C (dose: 3.12 mg/kg/injection, schedule: Q01DX009 (ip), vehicle: distilled water + Tween-80 + alcohol): 113 % of control
T/C (dose: 6.25 mg/kg/injection, schedule: Q01DX009 (ip), vehicle: distilled water + Tween-80 + alcohol): 109 % of control
T/C (dose: 12.5 mg/kg/injection, schedule: Q01DX009 (ip), vehicle: distilled water + Tween-80 + alcohol): 114 % of control
T/C (dose: 25.0 mg/kg/injection, schedule: Q01DX009 (ip), vehicle: distilled water + Tween-80 + alcohol): 97 % of control

CC1(c2ccc(N(CCCl)CCCl)cc2)NC(=O)NC1=O (stereo not drawn)
T/C (dose: 6.25 mg/kg/injection, schedule: Q01DX009 (ip), vehicle: Klucel (hydroxypropylcellulose) (HPC)): 121 % of control
T/C (dose: 12.5 mg/kg/injection, schedule: Q01DX009 (ip), vehicle: Klucel (hydroxypropylcellulose) (HPC)): 122 % of control
T/C (dose: 25.0 mg/kg/injection, schedule: Q01DX009 (ip), vehicle: Klucel (hydroxypropylcellulose) (HPC)): 191 % of control
T/C [12]: 260 % of control

Cc1ccc(S(=O)(=O)N(C)CCC#N)cc1
T/C [12]: 90 % of control
T/C [5]: 90 % of control
T/C (dose: 200.0 mg/kg/injection, schedule: Q01DX009 (ip), vehicle: Klucel (hydroxypropylcellulose) (HPC)): 100 % of control
T/C [6]: 100 % of control
T/C (dose: 400.0 mg/kg/injection, schedule: Q01DX009 (ip), vehicle: Klucel (hydroxypropylcellulose) (HPC)): 110 % of control
T/C [7]: 109 % of control

Clc1ccc2c(c1)-c1ccccc1C1=NCCN12
T/C (dose: 2.5 mg/kg/injection, schedule: Q04DX003 (ip), vehicle: Klucel (hydroxypropylcellulose) (HPC)): 110 % of control
T/C (dose: 4.4 mg/kg/injection, schedule: Q04DX003 (ip), vehicle: Klucel (hydroxypropylcellulose) (HPC)): 100 % of control
T/C (dose: 5.0 mg/kg/injection, schedule: Q01DX009 (ip), vehicle: Klucel (hydroxypropylcellulose) (HPC)): 95 % of control
T/C (dose: 5.0 mg/kg/injection, schedule: Q04DX003 (ip), vehicle: Klucel (hydroxypropylcellulose) (HPC)): 100 % of control
T/C (dose: 6.6 mg/kg/injection, schedule: Q04DX003 (ip), vehicle: Klucel (hydroxypropylcellulose) (HPC)): 91 % of control
T/C (dose: 10.0 mg/kg/injection, schedule: Q01DX009 (ip), vehicle: Klucel (hydroxypropylcellulose) (HPC)): 113 % of control
T/C (dose: 10.0 mg/kg/injection, schedule: Q04DX003 (ip), vehicle: Klucel (hydroxypropylcellulose) (HPC)): 95 % of control
T/C (dose: 15.0 mg/kg/injection, schedule: Q04DX003 (ip), vehicle: Klucel (hydroxypropylcellulose) (HPC)): 91 % of control
T/C (dose: 20.0 mg/kg/injection, schedule: Q01DX009 (ip), vehicle: Klucel (hydroxypropylcellulose) (HPC)): 113 % of control

CC([NH-])=O.CC([NH-])=O.[Pt+2]
T/C [11]: 96 % of control
T/C [8]: 104 % of control
T/C [9]: 102 % of control
T/C [10]: 107 % of control
T/C (dose: 300.0 mg/kg/injection, schedule: Q01DX009 (ip), vehicle: water): 112 % of control
